Results: patent US6573293B2, “Pyrrole substituted 2-indolinone protein kinase inhibitors” (Sugen, Inc., priority 2000, dated 2003)

Tests used:
[1] = target: T1, GST-Flk1 (Mus musculus, UniProt P35918); assay: GST-FLK-1 bioassay (bio flkGST); assay type: biochemical
T1 construct: GST-Flk1cd purified from sf9 recombinant baculovirus transformation; host or cells: Sf9 (baculovirus)
Method: This assay analyzes the tyrosine kinase activity of GST-Flk1 on poly(glu,tyr) peptides.
Preparation of poly(glu,tyr)(pEY) coated assay plates: Coat 2 ug/well of poly(glu,tyr)(pEY) in 100 ul PBS, hold at room temperature for 2 hours or at 4° C. overnight. Cover plates well to prevent evaporation.
When all reagents have dissolved, adjust the pH to 7.2 with HCl. Bring total volume to 1 L with dH2O.
PBST Buffer: to 1 L of PBS Buffer, add 1.0 ml Tween-20.
Adjust pH to 7.2 with HCl. Add 10 g BSA, stir to dissolve. Bring total volume to 1 L with dH2O. Filter to remove particulate matter.
Adjust total volume to 1 L with PBS buffer, filter to remove particulate matter.
GST-Flk1cd purified from sf9 recombinant baculovirus transformation (SUGEN, Inc.).
Add 10 N NaOH until EDTA dissolves. Adjust pH to 8.0. Adjust total volume to 100 ml with dH2O.
Anti-phosphotyrosine monoclonal antibody conjugated to horseradish peroxidase (PY99 HRP, Santa Cruz Biotech).
2,2′-Azinobis(3-ethylbenzthiazoline-6-sulfonic acid (ABTS, Moss, Cat. No. ABST).
Coat Corning 96-well ELISA plates with 2 μg of polyEY peptide in sterile PBS as described in step 3 of Materials and Reagents.
Remove unbound liquid from wells by inverting plate. Wash once with TBST. Pat the plate on a paper towel to remove excess liquid.
Add 100 μl of 1% BSA in PBS to each well. Incubate, with shaking, for 1 hr. at room temperature.
Soak wells with 50 mM HEPES (pH7.5) (150 μl/well).
Dilute test compound with dH2O/4% DMSO to 4 times the desired final assay concentration in 96-well polypropylene plates.
Add 25 μl diluted test compound to ELISA plate. In control wells, place 25 μl of dH2O/4% DMSO.
Add 25 μl 0.5M EDTA to negative control wells.
Dilute GST-Flk1 to 0.005 μg (5 ng)/well with KDB.
Add 50 μl of diluted enzyme to each well.
Incubate, with shaking, for 15 minutes at room temperature.
Wash 3×with TBST and pat plate on paper towel to remove excess liquid.
Incubate, with shaking, for 90 min. at room temperature.
Add 100 μl of room temperature ABTS solution to each well.
Stop reaction by adding 20 μl of 10% SDS to each well.

[2] = target: T2, PDGFR-β (Homo sapiens, UniProt P09619); assay: PDGFR bioassay (bio PDGF); assay type: biochemical
T2 construct: host or cells: NIH 3T3
T2 sequence (P09619 33-1106): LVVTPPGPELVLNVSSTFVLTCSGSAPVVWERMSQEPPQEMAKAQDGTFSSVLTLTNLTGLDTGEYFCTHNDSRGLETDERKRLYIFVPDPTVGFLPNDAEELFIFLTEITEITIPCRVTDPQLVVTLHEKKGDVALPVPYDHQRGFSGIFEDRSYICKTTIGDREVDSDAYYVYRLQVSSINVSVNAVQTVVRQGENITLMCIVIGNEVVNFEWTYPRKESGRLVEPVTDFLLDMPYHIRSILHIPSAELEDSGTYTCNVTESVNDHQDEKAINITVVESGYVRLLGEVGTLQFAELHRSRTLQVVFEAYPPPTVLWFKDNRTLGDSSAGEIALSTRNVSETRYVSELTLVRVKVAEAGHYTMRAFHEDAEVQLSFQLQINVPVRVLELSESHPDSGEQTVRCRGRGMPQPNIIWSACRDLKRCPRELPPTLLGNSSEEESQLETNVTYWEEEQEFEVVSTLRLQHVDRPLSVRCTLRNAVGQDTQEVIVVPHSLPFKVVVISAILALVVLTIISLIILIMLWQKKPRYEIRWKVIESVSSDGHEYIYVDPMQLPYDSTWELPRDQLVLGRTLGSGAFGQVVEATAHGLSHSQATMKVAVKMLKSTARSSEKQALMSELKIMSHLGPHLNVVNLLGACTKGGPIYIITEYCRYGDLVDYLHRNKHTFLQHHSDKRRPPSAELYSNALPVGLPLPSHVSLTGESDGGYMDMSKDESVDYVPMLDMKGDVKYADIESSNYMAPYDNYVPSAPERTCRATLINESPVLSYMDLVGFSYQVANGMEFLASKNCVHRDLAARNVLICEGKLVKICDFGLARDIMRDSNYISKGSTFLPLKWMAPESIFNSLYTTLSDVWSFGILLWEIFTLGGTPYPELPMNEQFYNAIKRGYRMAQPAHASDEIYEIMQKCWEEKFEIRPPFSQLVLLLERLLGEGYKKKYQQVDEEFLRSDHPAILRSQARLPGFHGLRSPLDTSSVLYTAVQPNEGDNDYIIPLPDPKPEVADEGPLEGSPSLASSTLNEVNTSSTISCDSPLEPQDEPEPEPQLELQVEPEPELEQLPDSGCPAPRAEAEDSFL

[3] = target: T3, EGFR (Homo sapiens, UniProt P00533); assay: EGFR bioassay (bio EGF); assay type: biochemical
T3 construct: A431 cell lysate (SUGEN, Inc.); host or cells: A431
T3 sequence (P00533 25-1210): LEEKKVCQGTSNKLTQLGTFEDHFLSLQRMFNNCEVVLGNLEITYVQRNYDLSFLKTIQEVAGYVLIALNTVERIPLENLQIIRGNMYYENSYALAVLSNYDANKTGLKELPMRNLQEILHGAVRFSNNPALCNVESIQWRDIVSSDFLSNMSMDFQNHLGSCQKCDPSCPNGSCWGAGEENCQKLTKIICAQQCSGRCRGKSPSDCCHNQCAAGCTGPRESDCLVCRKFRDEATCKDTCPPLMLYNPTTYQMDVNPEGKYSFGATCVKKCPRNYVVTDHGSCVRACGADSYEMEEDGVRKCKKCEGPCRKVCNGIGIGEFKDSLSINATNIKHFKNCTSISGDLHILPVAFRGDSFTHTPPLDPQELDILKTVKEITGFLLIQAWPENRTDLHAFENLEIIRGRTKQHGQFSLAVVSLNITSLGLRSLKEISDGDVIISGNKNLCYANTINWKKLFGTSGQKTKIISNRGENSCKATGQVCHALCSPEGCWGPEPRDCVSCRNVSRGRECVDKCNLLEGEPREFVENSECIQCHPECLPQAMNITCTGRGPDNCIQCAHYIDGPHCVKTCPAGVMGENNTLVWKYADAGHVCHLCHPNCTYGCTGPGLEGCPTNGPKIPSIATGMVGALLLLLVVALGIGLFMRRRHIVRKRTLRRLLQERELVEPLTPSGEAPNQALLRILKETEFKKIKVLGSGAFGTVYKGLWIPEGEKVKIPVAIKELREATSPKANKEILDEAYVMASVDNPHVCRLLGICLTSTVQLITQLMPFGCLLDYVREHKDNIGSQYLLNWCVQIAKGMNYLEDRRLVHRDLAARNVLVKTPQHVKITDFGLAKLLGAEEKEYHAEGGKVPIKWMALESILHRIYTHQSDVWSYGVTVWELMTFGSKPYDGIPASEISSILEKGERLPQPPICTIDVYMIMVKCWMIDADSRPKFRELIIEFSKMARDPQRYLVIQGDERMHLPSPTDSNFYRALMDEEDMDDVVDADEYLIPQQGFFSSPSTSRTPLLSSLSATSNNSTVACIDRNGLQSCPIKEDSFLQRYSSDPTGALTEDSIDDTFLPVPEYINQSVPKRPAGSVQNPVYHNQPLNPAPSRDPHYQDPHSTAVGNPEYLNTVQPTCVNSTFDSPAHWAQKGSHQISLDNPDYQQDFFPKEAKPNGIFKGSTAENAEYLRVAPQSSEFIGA

[4] = target: T3, EGFR; assay: cell EGF assay; assay type: cell-based
Method: Several of the assays described herein are performed in an ELISA (Enzyme-Linked Immunosorbent Sandwich Assay) format (Voller, et al., 1980, “Enzyme-Linked Immunosorbent Assay,” Manual of Clinical Immunology, 2d ed., Rose and Friedman, Am. Soc. Of Microbiology, Washington, D.C., pp. 359-371). The general procedure is as follows: a compound is introduced to cells expressing the test kinase, either naturally or recombinantly, for a selected period of time after which, if the test kinase is a receptor, a ligand known to activate the receptor is added. The cells are lysed and the lysate is transferred to the wells of an ELISA plate previously coated with a specific antibody recognizing the substrate of the enzymatic phosphorylation reaction. Non-substrate components of the cell lysate are washed away and the amount of phosphorylation on the substrate is detected with an antibody specifically recognizing phosphotyrosine compared with control cells that were not contacted with a test compound.

[5] = target: T4, HER-2 kinase (Homo sapiens, UniProt P04626); assay: Cellular HER-2 kinase assay; assay type: cell-based; settings: read-out: Her2 Kinase IC50
T4 construct: Use EGFr/HER-2 chimera/3T3-C7 cell line for this assay; It is expressed in mouse NIH 3T3 clone C7 cells; P00533 (Epidermal growth factor receptor)
T4 sequence (P04626 720-987 limits assumed): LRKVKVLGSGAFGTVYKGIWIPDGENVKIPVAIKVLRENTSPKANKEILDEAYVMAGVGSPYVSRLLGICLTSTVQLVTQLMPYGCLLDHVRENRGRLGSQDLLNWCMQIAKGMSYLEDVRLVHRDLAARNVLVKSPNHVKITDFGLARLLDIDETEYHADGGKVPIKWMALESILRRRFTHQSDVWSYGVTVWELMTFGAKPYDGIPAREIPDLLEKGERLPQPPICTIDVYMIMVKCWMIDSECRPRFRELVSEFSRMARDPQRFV
Method: Cellular HER-2 Kinase Assay
This assay is used to measure HER-2 kinase activity in whole cells in an ELISA format.
Fetal Bovine Serum (FBS, GIBCO Catalog #16000-044), heat inactivated in a water bath for 30 min. at 56° C.
Corning 96-well ELISA Plates.
NUNC 96-well V bottom polypropylene plates.
SUMO 1: monoclonal anti-EGFR antibody (SUGEN, Inc.).
Blocking Buffer: 5% Carnation Instant Milk® in PBS.
Suspend powder in 100 uL of 10 mM HCl. Add 100 uL 10 mM NaOH. Add 800 uL PBS and transfer to an Eppendorf tube, store at −20° C. until ready to use.
Na3VO4. […] Adjust pH to 10. Boil in microwave for one minute (solution becomes clear). Cool to room temperature. Adjust pH to 10. Repeat heating/cooling cycle until pH remains at 10.
Rabbit polyclonal antiserum specific for phosphotyrosine (anti-Ptyr antibody, SUGEN, Inc.).
Affinity purified antiserum, goat anti-rabbit IgG antibody, peroxidase conjugate (Biosource Cat #ALI0404).
30% Hydrogen peroxide solution.
Coat Corning 96 well ELISA plates with SUMO1 at 1.0 ug per well in PBS, 100 ul final volume/well. Store overnight at 4° C.
On day of use, remove coating buffer and wash plate 3 times with dH2O and once with TBST buffer. All washes in this assay should be done in this manner, unless otherwise specified.
Add 100 ul of Blocking Buffer to each well. Incubate plate, with shaking, for 30 min. at room temperature. Just prior to use, wash plate.
Use EGFr/HER-2 chimera/3T3-C7 cell line for this assay.
Choose dishes having 80-90% confluence. Collect cells by trypsinization and centrifuge at 1000 rpm at room temperature for 5 min.
Resuspend cells in starve medium and count with trypan blue. Viability above 90% is required. Seed cells in starve medium at a density of 2,500 cells per well, 90 ul per well, in a 96 well microtiter plate. Incubate seeded cells overnight at 37° under 5% CO2.
Start the assay two days after seeding.
Test compounds are dissolved in 4% DMSO. Samples are then further diluted directly on plates with starve-DMEM. Typically, this dilution will be 1:10 or greater.
Incubate under 5% CO2 at 37° C. for 2 hours.
Prepare fresh HNTG* sufficient for 100 ul per well; place on ice.
After 2 hour incubation with test compound, add prepared EGF ligand to cells, 50 ul per well, for a final concentration of 50 nM. Positive control wells receive the same amount of EGF. […] Incubate at 37° C. for 10 min.
Remove test compound, EGF, and DMEM. Wash cells once with PBS.
Transfer HNTG* to cells, 100 ul per well. Place on ice for 5 minutes. Meanwhile, remove blocking buffer from ELISA plate and wash.
Scrape cells from plate with a micropipettor and homogenize cell material by repeatedly aspirating and dispensing the HNTG* lysis buffer. Transfer lysate to a coated, blocked, washed ELISA plate. Or, use a Costar transfer cartridge to transfer lysate to the plate.
Incubate, with shaking, at room temperature for 1 hr.
Remove lysate, wash. Transfer freshly diluted anti-Ptyr antibody (1:3000 in TBST) to ELISA plate, 100 ul per well.
Incubate, with shaking, at room temperature, for 30 min.
Remove anti-Ptyr antibody, wash. Transfer freshly diluted BIOSOURCE antibody to ELISA plate (1:8000 in TBST, 100 ul per well).
Incubate, with shaking, at room temperature for 30 min.
Remove BIOSOURCE antibody, wash. Transfer freshly prepared ABTS/H2O2 solution to ELISA plate, 100 ul per well.
Stop reaction with the addition of 100 ul of 0.2M HCl per well.

T1 sequence (P35918 784-1345 limits assumed): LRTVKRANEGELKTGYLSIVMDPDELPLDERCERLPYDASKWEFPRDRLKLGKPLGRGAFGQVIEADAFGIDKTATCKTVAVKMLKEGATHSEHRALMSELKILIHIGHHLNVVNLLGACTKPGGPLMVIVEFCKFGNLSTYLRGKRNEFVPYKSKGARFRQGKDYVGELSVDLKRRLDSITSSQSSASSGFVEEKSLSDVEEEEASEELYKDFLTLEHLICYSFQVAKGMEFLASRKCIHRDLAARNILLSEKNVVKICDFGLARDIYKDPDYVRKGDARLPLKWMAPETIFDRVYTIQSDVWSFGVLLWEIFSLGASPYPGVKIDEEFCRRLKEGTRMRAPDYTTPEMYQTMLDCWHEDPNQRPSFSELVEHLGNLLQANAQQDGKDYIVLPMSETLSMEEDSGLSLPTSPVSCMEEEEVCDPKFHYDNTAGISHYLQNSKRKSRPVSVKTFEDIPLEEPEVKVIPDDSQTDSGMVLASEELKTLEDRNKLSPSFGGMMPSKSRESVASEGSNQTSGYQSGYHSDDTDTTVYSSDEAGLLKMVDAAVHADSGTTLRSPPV

Row | SMILES | IC50 [1] [µM] | IC50 [2] [µM] | IC50 [3] [µM] | IC50 [4] [µM] | IC50 [5] [µM]
1 | Cc1cc(C(=O)O)[nH]c1/C=C1\C(=O)N(C)c2ccccc21 [Example 2, 4-Methyl-5-(1-methyl-2-oxo-1,2-dihydroindol-3-ylidenemethyl)-1H-pyrrole-2-carboxylic acid] | > 100 | > 100 | > 100 | > 100 | –
2 | Cc1[nH]c(/C=C2\C(=O)Nc3cc(-c4cccnc4)ccc32)c(C)c1C(=O)NCCCN(C)C [Example 65, 2,4-Dimethyl-5-(2-oxo-6-pyridin-3-yl-1,2-dihydroindol-3-ylidenemethyl)-1H-pyrrole-3-carboxylic acid (3-dimethylamino-propyl)amide] | 0.37 | < 0.05 | > 100 | 74.4 | 16
3 | Cc1[nH]c(/C=C2\C(=O)Nc3ccc(-c4ccccc4)cc32)c(C)c1C(=O)NCCN1CCCC1 [Example 57, 2,4-Dimethyl-5-(2-oxo-5-phenyl-1,2-dihydroindol-3-ylidenemethyl)-1H-pyrrole-3-carboxylic acid (2-pyrrolidin-1-yl-ethyl)amide] | 0.06 | 7.98 | > 100 | 9.97 | 6.94
4 | CCN(CC)CCCNC(=O)c1cc(C)c(/C=C2\C(=O)Nc3ccc(Br)cc32)[nH]1 [Example 7, 5-(5-Bromo-2-oxo-1,2-dihydroindol-3-ylidenemethyl)-4-methyl-1H-pyrrole-2-carboxylic acid (3-diethylaminopropyl)amide] | 7.74 | > 100 | 5.07 | 9.8 | 4.24
5 | CCN(CC)CCNC(=O)c1c(C)[nH]c(/C=C2\C(=O)Nc3ccc(-c4ccccc4)cc32)c1C [Example 56, 2,4-Dimethyl-5-(2-oxo-5-phenyl-1,2-dihydroindol-3-ylidenemethyl)-1H-pyrrole-3-carboxylic acid (2-diethylaminoethyl)amide] | 2.32 | 3.19 | > 100 | 10 | 7.11
6 | CCN(CC)CCNC(=O)c1c(C)[nH]c(/C=C2\C(=O)Nc3cc(-c4ccccc4)ccc32)c1C [Example 59, 2,4-Dimethyl-5-(2-oxo-6-phenyl-1,2-dihydroindol-3-ylidenemethyl)-1H-pyrrole-3-carboxylic acid (2-diethylaminoethyl)amide] | – | < 0.78 | > 100 | > 100 | > 100
7 | CC(C)c1[nH]c(/C=C2\C(=O)Nc3ccc(Br)cc32)c(C(C)C)c1C(=O)NCCCN1CCCC1 [Example 73, 5-(5-Bromo-2-oxo-1,2-dihydroindol-3-ylidenemethyl)-2,4-diisopropyl-1H-pyrrole-3-carboxylic acid (3-pyrrolidin-1-ylpropyl)amide] | 5.95 | 14.1 | > 100 | 39.5 | 8.59
8 | Cc1[nH]c(/C=C2\C(=O)Nc3cc(-c4ccccc4)ccc32)c(C)c1C(=O)NCCN1CCCC1 [Example 60, 2,4-Dimethyl-5-(2-oxo-6-phenyl-1,2-dihydroindol-3-ylidenemethyl)-1H-pyrrole-3-carboxylic acid (2-pyrrolidin-1-yl-ethyl)amide] | – | < 0.78 | > 100 | > 100 | > 100
9 | CCN(CC)CCCNC(=O)c1c(C)[nH]c(/C=C2\C(=O)Nc3cc(-c4ccccc4)ccc32)c1C [Example 68, 2,4-Dimethyl-5-(2-oxo-6-phenyl-1,2-dihydroindol-3-ylidenemethyl)-1H-pyrrole-3-carboxylic acid (3-diethylaminopropyl)amide] | 1.16 | 0.03 | – | 23.5 | 34.1
10 | CCN(CC)CCCNC(=O)c1c(C(C)C)[nH]c(/C=C2\C(=O)Nc3ccc(Br)cc32)c1-c1ccccc1 [Example 37, 5-(5-Bromo-2-oxo-1,2-dihydroindol-3-ylidenemethyl)-2-isopropyl-4-phenyl-1H-pyrrole-3-carboxylic acid (3-diethylaminopropyl)amide] | 0.22 | 3.06 | 10.8 | 9.84 | 1.4
11 | Cc1[nH]c(/C=C2\C(=O)Nc3ccc(Br)cc32)c(-c2ccccc2)c1C(=O)NCCN1CCCC1 [Example 42, 5-(5-Bromo-2-oxo-1,2-dihydroindol-3-ylidenemethyl)-2-methyl-4-phenyl-1H-pyrrole-3-carboxylic acid (2-pyrrolidin-1-yl-ethyl)amide] | 0.1 | 0.12 | 12 | 74.6 | 20.4
12 | COc1ccccc1-c1ccc2c(c1)NC(=O)/C2=C\c1[nH]c(C)c(C(=O)NCCN2CCCC2)c1-c1ccccc1 [Example 43, 5-[6-(2-Methoxy-phenyl)-2-oxo-1,2-dihydroindol-3-ylidenemethyl]-2-methyl-4-phenyl-1H-pyrrole-3-carboxylic acid (2-pyrrolidin-1-yl-ethyl)amide] | 1.12 | 8.38 | – | 37.3 | 53.4
13 | CCN(CC)CCNC(=O)c1ccc(/C=C2\C(=O)Nc3cc(-c4ccccc4)ccc32)[nH]1 [Example 9, 5-(2-Oxo-6-phenyl-1,2-dihydroindol-3-ylidenemethyl)-1H-pyrrole-2-carboxylic acid (2-diethylaminoethyl)amide] | 0.96 | > 100 | > 100 | > 100 | 16.4
14 | CCN(CC)CCN(C)C(=O)c1ccc(/C=C2\C(=O)Nc3cc(-c4ccccc4)ccc32)[nH]1 [Example 11, 5-(2-Oxo-6-phenyl-1,2-dihydroindol-3-ylidenemethyl)-1H-pyrrole-2-carboxylic acid (2-diethylaminoethyl)methylamide] | 9.77 | > 100 | > 100 | > 100 | > 100
15 | COc1cccc(-c2ccc3c(c2)NC(=O)/C3=C\c2[nH]c(C)c(C(=O)NCCN(C)C)c2C)c1 [Example 55, 5-[6-(3-Methoxy-phenyl)-2-oxo-1,2-dihydroindol-3-ylidenemethyl]-2,4-dimethyl-1H-pyrrole-3-carboxylic acid (2-dimethylamino-ethyl)amide] | 0.27 | 0.53 | 6.03 | 36 | 77.8
16 | CCN(CC)CCN(C)C(=O)c1ccc(/C=C2\C(=O)Nc3ccc(Br)cc32)[nH]1 [Example 10, 5-(5-Bromo-2-oxo-1,2-dihydroindol-3-ylidenemethyl)-1H-pyrrole-2-carboxylic acid (2-diethylaminoethyl)methylamide] | 5.72 | > 100 | 94 | 15.9 | 8.06
17 | CN(C)CCNC(=O)c1[nH]c(/C=C2\C(=O)Nc3ccc(Br)cc32)c2c1CCCC2 [Example 89, 3-(5-Bromo-2-oxo-1,2-dihydro-indol-3-ylidenemethyl)-4,5,6,7-tetrahydro-2H-isoindole-1-carboxylic acid (2-dimethylamino-ethyl)-amide] | 7.84 | 47.6 | 8.53 | 9.67 | 16
18 | CCN(CC)CCNC(=O)c1ccc(/C=C2\C(=O)Nc3ccc(Br)cc32)[nH]1 [Example 8, 5-(5-Bromo-2-oxo-1,2-dihydroindol-3-ylidenemethyl)-1H-pyrrole-2-carboxylic acid (2-diethylaminoethyl)amide] | 12.1 | > 100 | 51.3 | 20.1 | 5.5
19 | CCN(CC)CCCNC(=O)c1c(C)[nH]c(/C=C2\C(=O)Nc3ccc(-c4ccccc4)cc32)c1C [Example 67, 2,4-Dimethyl-5-(2-oxo-5-phenyl-1,2-dihydroindol-3-ylidenemethyl)-1H-pyrrole-3-carboxylic acid (3-diethylaminopropyl)amide] | 0.39 | 24.8 | 31.4 | 19.8 | 2.56
20 | CCN(CC)CCNC(=O)c1c(C(C)C)[nH]c(/C=C2\C(=O)Nc3ccc(Br)cc32)c1-c1ccccc1 [Example 39, 5-(5-Bromo-2-oxo-1,2-dihydroindol-3-ylidenemethyl)-2-isopropyl-4-phenyl-1H-pyrrole-3-carboxylic acid (2-diethylaminoethyl)amide] | 3.38 | 4.69 | 3.67 | 14.5 | 3.53
21 | CCN(CC)CCCNC(=O)c1c(C)[nH]c(/C=C2\C(=O)Nc3cccc(C(=O)Nc4ccc(OC)c(Cl)c4)c32)c1C [Example 69, 3-[4-(3-Diethylamino-propylcarbamoyl)-3,5-dimethyl-1H-pyrrol-2-ylmethylene]-2-oxo-2,3-dihydro-1H-indole-4-carboxylic acid (3-chloro-4-methoxy-phenyl)amide] | 0.3 | 56.5 | – | 97.5 | –
